Results on two molecules are retold here after patent US6372757B1, “Phenylurea and phenylthio urea derivatives” (SmithKline Beecham p.l.c., priority 1998, dated 2002).

Structures can show the parent of a compound that is named as a salt. No end group written: not given here. Bounds are passed on as bounds.

In one assay the target is T1, human orexin-1 receptor (Homo sapiens, UniProt O43613).
T1 construct: expressed in transfected cells; host or cells: HEK293
T1 sequence (O43613 1-425): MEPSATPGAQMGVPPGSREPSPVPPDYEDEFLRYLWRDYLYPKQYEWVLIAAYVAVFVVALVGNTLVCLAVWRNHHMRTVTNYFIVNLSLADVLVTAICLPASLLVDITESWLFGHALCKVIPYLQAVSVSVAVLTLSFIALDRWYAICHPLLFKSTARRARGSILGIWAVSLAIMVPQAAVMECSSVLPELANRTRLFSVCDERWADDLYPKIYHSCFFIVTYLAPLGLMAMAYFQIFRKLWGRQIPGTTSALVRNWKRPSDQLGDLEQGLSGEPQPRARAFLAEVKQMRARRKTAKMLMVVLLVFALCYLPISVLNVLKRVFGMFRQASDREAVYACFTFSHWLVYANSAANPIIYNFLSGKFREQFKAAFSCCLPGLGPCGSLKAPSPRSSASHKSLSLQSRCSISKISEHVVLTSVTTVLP
Briefly: Orexin-1 receptor antagonist activity, FLIPR intracellular calcium assay in HEK293 cells against 3.0 nM human orexin-A. The assay is classed as cell-based. Particulars: HEK293 cells expressing human orexin-1 receptor; antagonism of 3.0 nM human orexin-A; Kb=IC50/(1+([3/EC50]). Here is the method:
The seeded plates were incubated overnight at 37° C. in 5% CO2.

For assay [1] the following is noted: central administration, freely-feeding rats, 4 hour time period; cited from earlier work.
Assay [2] is described as follows: Rat sleep/EEG studies, central administration at onset of normal sleep period. The assay is classed as in vivo. Particulars: at the expense of paradoxical sleep and slow wave sleep 2. The source says: Therefore, antagonists of orexin receptors may be useful in the treatment of sleep disorders including insomnia.

`CSc1ccc(NC(=O)Nc2ccnc3cccnc23)cc1` [Example 2, 1-(4-Methylthiophenyl)-3-[1,5]naphthyridin-4-yl urea hydrochloride]: the Kb on human orexin-1 receptor is less than 0.1 µM.

For “orexin-A: ligand for the orexin-1 receptor; 33-residue peptide, sequence given in the 1st table (QPLPDCCRQKTCSCRLYELLHGAGNHAAGILTL-NH2; not fully specified (residue 1, bridges); ends and bridges not checked; UniProt O43612 34-66, looked up)”, the “increase in food intake over control rats receiving vehicle” value in assay [1] was “approximately four-fold”. In assay [2], the effect on arousal result is given as “does-related increase in arousal”.
